Reference: patent publication US11293863B2, “Robust interferometer and methods of using same” (Vanderbilt University, priority 2015, dated 2022)

Columns and labels:
[1] = tested on: FAAH in small unilamellar vesicles; CXCR4 receptor; GABAB receptor in CHO cell membranes; assay: BSI label-free free-solution binding assays on membrane proteins (negative controls); settings: negative control compound, even the highest concentrations
Source text: Membrane-associated proteins and their interactions are of paramount interest in the design of clinical therapeutics, accounting for almost 70% of existing drug candidate targets (Krummel and Davis (2002) Current Opinion in Immunology 14: 66-74; Overington et al. (2006) Nature Reviews Drug Discovery 5: 993-996). To date, it has been difficult to perform direct binding assays on cellular membranes except by down-stream signal transduction or the use of isotope labeling methods. BSI facilitated label-free, free solution binding assays on proteoliposomes (Bracey et al. (2002) Science 298: 1793-1796; Jass et al. (2000) Biophysical Journal 79: 3153-3163) from full-length, functional membrane proteins, from both natural and recombinant sources (Kussrow et al. (2010) Chembiochem DOI: 10.1002/cbic.201000671). […]

[2] = biological target: lectin Concanavalin A (ConA) (Canavalia ensiformis, UniProt P02866); settings: non-binding sugar used as control, free-solution BSI with ConA; cited from earlier work

Row | SMILES | BSI signal [1] | BSI binding signal [2]
1 | C[C@H](N)C(=O)O [L-alanine] | Little or no BSI signal | 
2 | CC(C)CCC[C@@H](C)[C@H]1CC[C@H]2[C@@H]3CC=C4C[C@@H](O)CC[C@]4(C)[C@H]3CC[C@]12C [cholesterol] | Little or no BSI signal | 
3 | O=C[C@H](O)[C@@H](O)[C@@H](O)[C@H](O)CO [galactose] |  | no binding signal
